Laboratory results taken from ChEMBL document CHEMBL1201862, “PubChem BioAssay data set” (2004).
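How tested: cells in 96-well plates exposed to compound for 48 hours at five concentrations. The concentration for 50% growth inhibition is given as GI50.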 The source made the active and inactive calls. Cut-off read from the data, not from the text of the source: active = GI50 up to about 1.1 µM and inactive = higher.

Key:
Experiment in all cases: DTP human tumour cell line panel, 48 h
A498 = tested on: A498
HCC 2998 = tested on: HCC 2998
HOP-62 = tested on: HOP-62
HOP-92 = tested on: HOP-92
HT-29 = tested on: HT-29
KM12 = tested on: KM12
LOX IMVI = tested on: LOX IMVI
M14 = tested on: M14
MDA-MB-231 = tested on: MDA-MB-231
NCI-H460 = tested on: NCI-H460
NCI/ADR-RES = tested on: NCI/ADR-RES
RXF 393 = tested on: RXF 393
SF-268 = tested on: SF-268
SF-539 = tested on: SF-539
SK-MEL-2 = tested on: SK-MEL-2
SK-MEL-5 = tested on: SK-MEL-5
SK-OV-3 = tested on: SK-OV-3
SW-620 = tested on: SW-620
UO-31 = tested on: UO-31
HL-60 = tested on: HL-60

SMILES | GI50 (A498) | GI50 (HCC 2998) | GI50 (HOP-62) | GI50 (HOP-92) | GI50 (HT-29) | GI50 (KM12) | GI50 (LOX IMVI) | GI50 (M14) | GI50 (MDA-MB-231) | GI50 (NCI-H460) | GI50 (NCI/ADR-RES) | GI50 (RXF 393) | GI50 (SF-268) | GI50 (SF-539) | GI50 (SK-MEL-2) | GI50 (SK-MEL-5) | GI50 (SK-OV-3) | GI50 (SW-620) | GI50 (UO-31) | GI50 (HL-60)
Cc1c2c(Cl)c3c(c(Cl)c2c(C)c2c(Cl)c4c(c(Cl)c12)C(c1ccccc1)(c1ccccc1)C4(c1ccccc1)c1ccccc1)C(c1ccccc1)(c1ccccc1)C3(c1ccccc1)c1ccccc1 | > 100 µM (inactive) | > 100 µM (inactive) | > 100 µM (inactive) | > 100 µM (inactive) | > 100 µM (inactive) | > 100 µM (inactive) | > 100 µM (inactive) | > 100 µM (inactive) | > 100 µM (inactive) | > 100 µM (inactive) | > 100 µM (inactive) | > 100 µM (inactive) | > 100 µM (inactive) | > 100 µM (inactive) | > 100 µM (inactive) | > 100 µM (inactive) | > 100 µM (inactive) | > 100 µM (inactive) | > 100 µM (inactive) | –
CCOc1ccc(/N=N/C2C(=O)N(C(=O)CC(=O)Nc3ccccc3)N=C2C)cc1 (centres undefined) | 79.4 µM (inactive) | 40.9 µM (inactive) | 59.3 µM (inactive) | 28.5 µM (inactive) | 33.6 µM (inactive) | 18.6 µM (inactive) | 43.3 µM (inactive) | 58.1 µM (inactive) | 39.8 µM (inactive) | 34.6 µM (inactive) | 75.7 µM (inactive) | > 100 µM (inactive) | 61.8 µM (inactive) | 35.2 µM (inactive) | 66.4 µM (inactive) | 42.8 µM (inactive) | – | 33.4 µM (inactive) | > 100 µM (inactive) | 33.8 µM (inactive)
N#CC(C#N)=Cn1c(=S)[nH]c2ccc([N+](=O)[O-])cc21 | > 100 µM (inactive) | > 100 µM (inactive) | > 100 µM (inactive) | > 100 µM (inactive) | > 100 µM (inactive) | > 100 µM (inactive) | > 100 µM (inactive) | > 100 µM (inactive) | 68.7 µM (inactive) | > 100 µM (inactive) | > 100 µM (inactive) | > 100 µM (inactive) | > 100 µM (inactive) | > 100 µM (inactive) | > 100 µM (inactive) | > 100 µM (inactive) | > 100 µM (inactive) | > 100 µM (inactive) | > 100 µM (inactive) | > 100 µM (inactive)
N#Cc1c(-c2ccc([N+](=O)[O-])cc2)c(C#N)c(=O)n(NS(=O)(=O)c2ccccc2)c1-c1ccccc1 | > 100 µM (inactive) | > 100 µM (inactive) | > 100 µM (inactive) | > 100 µM (inactive) | > 100 µM (inactive) | > 100 µM (inactive) | > 100 µM (inactive) | > 100 µM (inactive) | > 100 µM (inactive) | > 100 µM (inactive) | > 100 µM (inactive) | > 100 µM (inactive) | > 100 µM (inactive) | > 100 µM (inactive) | > 100 µM (inactive) | > 100 µM (inactive) | > 100 µM (inactive) | > 100 µM (inactive) | – | > 100 µM (inactive)
CC(=O)Nc1nc(NC(C)=O)c2nc(CO)[nH]c2n1 | > 100 µM (inactive) | > 100 µM (inactive) | > 100 µM (inactive) | > 100 µM (inactive) | > 100 µM (inactive) | > 100 µM (inactive) | > 100 µM (inactive) | > 100 µM (inactive) | > 100 µM (inactive) | > 100 µM (inactive) | > 100 µM (inactive) | > 100 µM (inactive) | > 100 µM (inactive) | > 100 µM (inactive) | > 100 µM (inactive) | > 100 µM (inactive) | > 100 µM (inactive) | > 100 µM (inactive) | > 100 µM (inactive) | > 100 µM (inactive)
CN1CCN(CCCCN2c3ccccc3Sc3ccc(C(=O)c4ccccc4)cc32)CC1 | 1.56 µM (inactive) | 1.56 µM (inactive) | 1.6 µM (inactive) | 1.82 µM (inactive) | 1.29 µM (inactive) | 1.49 µM (inactive) | 1.46 µM (inactive) | 1.82 µM (inactive) | 1.9 µM (inactive) | 1.54 µM (inactive) | 1.86 µM (inactive) | 0.923 µM (active) | 2.23 µM (inactive) | 1.83 µM (inactive) | 1.77 µM (inactive) | 1.54 µM (inactive) | 1.57 µM (inactive) | 1.73 µM (inactive) | 2.65 µM (inactive) | 1.57 µM (inactive)
CC(C)(C)c1ccc(/C=N/NC(=O)CSCC(=O)N/N=C/c2ccc(C(C)(C)C)cc2)cc1 | 1.46 µM (inactive) | 2.73 µM (inactive) | 2.96 µM (inactive) | 2.49 µM (inactive) | 1.83 µM (inactive) | 2.53 µM (inactive) | – | 1.57 µM (inactive) | 0.22 µM (active) | 3.61 µM (inactive) | 4.26 µM (inactive) | 2.15 µM (inactive) | 1.9 µM (inactive) | 2.12 µM (inactive) | 2.28 µM (inactive) | 1.87 µM (inactive) | 5.61 µM (inactive) | 2.59 µM (inactive) | 3.71 µM (inactive) | 1.72 µM (inactive)
COc1ccc(/C=C/C(=O)c2cc(OC)cc(OC)c2)cc1 | 3.67 µM (inactive) | 4.44 µM (inactive) | 3.78 µM (inactive) | 20.8 µM (inactive) | 1.91 µM (inactive) | 0.265 µM (active) | 1.35 µM (inactive) | 2.45 µM (inactive) | 6.79 µM (inactive) | 2.9 µM (inactive) | 2.69 µM (inactive) | 3.33 µM (inactive) | 5.4 µM (inactive) | 1.05 µM (active) | 18.7 µM (inactive) | 10.3 µM (inactive) | 6.71 µM (inactive) | 0.64 µM (active) | 3.27 µM (inactive) | 0.151 µM (active)
O=C1/C(=C\c2ccc(-c3ccc(Cl)cc3Cl)o2)SC2NC(COc3ccc(Cl)cc3)=NN12 (centres undefined) | 2.19 µM (inactive) | 41.1 µM (inactive) | 80.4 µM (inactive) | 26.5 µM (inactive) | 79.4 µM (inactive) | 55.5 µM (inactive) | 52.1 µM (inactive) | > 100 µM (inactive) | 44 µM (inactive) | 38.5 µM (inactive) | 37.5 µM (inactive) | 27.5 µM (inactive) | 36 µM (inactive) | 49 µM (inactive) | 50.5 µM (inactive) | 36.7 µM (inactive) | 88.3 µM (inactive) | 60.7 µM (inactive) | > 100 µM (inactive) | 22.5 µM (inactive)
c1ccc2c(c1)Nc1cccc3c1c-2nc1cc2ccccc2cc13 | 2.88 µM (inactive) | 1.72 µM (inactive) | 1.72 µM (inactive) | 1.51 µM (inactive) | 1.72 µM (inactive) | 1.62 µM (inactive) | 1.55 µM (inactive) | 2.12 µM (inactive) | 1.1 µM (active) | 1.65 µM (inactive) | 2.2 µM (inactive) | 1.57 µM (inactive) | 1.71 µM (inactive) | 1.8 µM (inactive) | 1.48 µM (inactive) | 1.7 µM (inactive) | 1.64 µM (inactive) | 1.53 µM (inactive) | 1.63 µM (inactive) | –
S=C(S)N1CCN(c2cccc(Cl)c2)CC1 | > 100 µM (inactive) | 52.6 µM (inactive) | 82.8 µM (inactive) | 80.7 µM (inactive) | > 100 µM (inactive) | 75.3 µM (inactive) | 36.7 µM (inactive) | > 100 µM (inactive) | 68.9 µM (inactive) | – | > 100 µM (inactive) | > 100 µM (inactive) | 76.4 µM (inactive) | > 100 µM (inactive) | 85.5 µM (inactive) | 27.9 µM (inactive) | – | 65.3 µM (inactive) | 30.8 µM (inactive) | 34.9 µM (inactive)
CCCCOc1ccc(S(=O)(=O)N/C(=N\O)Nc2ccc(Cl)cc2)cc1 | 13.4 µM (inactive) | 14.3 µM (inactive) | 17.9 µM (inactive) | 4.79 µM (inactive) | 17.2 µM (inactive) | 16.6 µM (inactive) | 16 µM (inactive) | 15.2 µM (inactive) | 16.4 µM (inactive) | 15.4 µM (inactive) | 15.8 µM (inactive) | 15.2 µM (inactive) | 16 µM (inactive) | 20.8 µM (inactive) | 16.3 µM (inactive) | 14.3 µM (inactive) | – | 17.5 µM (inactive) | 12.2 µM (inactive) | –
COc1cc(O)cc(O)c1C(=O)CC(Cl)(Cl)Cl | > 100 µM (inactive) | > 100 µM (inactive) | > 100 µM (inactive) | > 100 µM (inactive) | > 100 µM (inactive) | > 100 µM (inactive) | > 100 µM (inactive) | > 100 µM (inactive) | > 100 µM (inactive) | > 100 µM (inactive) | > 100 µM (inactive) | > 100 µM (inactive) | > 100 µM (inactive) | > 100 µM (inactive) | – | > 100 µM (inactive) | > 100 µM (inactive) | > 100 µM (inactive) | > 100 µM (inactive) | > 100 µM (inactive)
Cc1ccc(NC(=O)CC(=O)N2N=C(N(c3ccccc3)c3ccccc3)CC2c2ccccc2)cc1 (centres undefined) | > 100 µM (inactive) | > 100 µM (inactive) | > 100 µM (inactive) | > 100 µM (inactive) | > 100 µM (inactive) | > 100 µM (inactive) | – | > 100 µM (inactive) | > 100 µM (inactive) | > 100 µM (inactive) | > 100 µM (inactive) | 52.8 µM (inactive) | 75.7 µM (inactive) | > 100 µM (inactive) | > 100 µM (inactive) | > 100 µM (inactive) | > 100 µM (inactive) | > 100 µM (inactive) | > 100 µM (inactive) | > 100 µM (inactive)
